One assay concerns Propionibacterium acnes. As to conditions: 1016 Propionibacterium. acnes.
The next assay deals with Ent. gallinarum. Kind of assay: MIC, broth microdilution method (NCCLS M7-A5). It is filed as cell-based. The following applies: 4174 Ent. gallinarum. On the procedure: Antimicrobial activity of the antibiotic 107891 was determined by the broth microdilution method according to the National Committee for Clinical Laboratory Standards recommendations (NCCLS, document M7-A5).
The strains used were clinical isolates or strains from American Type Culture Collection (ATCC).
Antibiotic 107891 was dissolved in DMSO to obtain a 1000 μg/ml stock solution, and subsequently diluted in water to obtain working solution. The media used were cation-adjusted Mueller Hinton broth (CAMHB) for Staphylococci, M. catarrhalis, Enterococci and L. monocytogenes; Todd Hewitt broth (THB) for Streptococci; GC medium+1% Isovitalex+1% haemine for Neisseria spp.; Brain Hearth Infusion+1% C supplement for H. influenzae; Lactobacillus broth for Lactobacilli; Middlebrook 7H9 with Middlebrook OADC enrichment for M. smegmatis; RPMI 1640 Medium for C. albicans. Wilkins Chalgren broth+oxyrase (1:25 v/v) for Clostridia; Brucella broth containing cisteine (0.5 g/L) for Propionibacteria. Inocula for bacteria were 10^5 CFU/ml. C. albicans inoculum was 1×10^4 CFU/ml. All the tests were performed in presence of 0.02% of bovine serum albumin (BSA). […] After 18-24 hours visual readings were performed and MICs determined. […]
Table VIII reports the antimicrobial activities of the individual Factors A1 and A2 of antibiotic 107891. MICs were determined by microbroth dilution method as above described.
On the technique in general: Broth dilution looks for growth in wells or tubes with falling amounts of substance.

A further assay deals with Neisseria meningitidis. The following applies: 1613 Neisseria meningitidis.
The test system of the next assay is Strept. pneumoniae. The assay is described as follows: MIC, broth microdilution method (NCCLS M7-A5). Type of assay: cell-based.
The test system of a further assay is Staph. epidermidis. The assay is described as follows: MIC, broth microdilution method (NCCLS M7-A5). Type of assay: cell-based.
A further assay deals with Neisseria gonorrhaee. As to conditions: 997 Neisseria gonorrhaee.
The mark [1] stands for this setting: 4341 Ent. faecalis VanB (first line, r17).
Where [2] appears, read: 4341 Ent. faecalis VanB (second line, r19).
[3] abbreviates: 1400 Staphylococcus aureus cl. isol. Met r.
Setting [4] is: 569 Enterococcus faecium cl. isol. Van A.

For three molecules, MIC results are on record in patent US7351687B2, “Antibiotic 107891, its factors A1 and A2, pharmaceutically acceptable salts and compositions, and use thereof” (priority 2003, dated 2008).

As usually defined, the MIC is the lowest concentration that inhibits growth of the organism. A high value points to weaker potency.

The structures appear in SMILES notation. Values after ≈ are worked out from the molar mass of the structure shown. Read-outs that look alike come from different tables or passages of the source.

For the molecule `C=C1NC(=O)C(Cc2c[nH]c3ccc(Cl)cc23)NC(=O)C(NC(=O)C(=CC)NC(=O)C(N)C(C)C)CSCC(C(=O)NC2C(=O)N3CCCC3C(=O)NCC(=O)NC(C(=O)NC(C(=O)NC3CSCC4NC(=O)C(CC(N)=O)NC(=O)C(CSCC5NC(=O)C(Cc6ccccc6)NC(=O)C(CS/C=C\NC5=O)NC4=O)NC(=O)CNC(=O)CNC(=O)CNC(=O)C4C(O)C(O)CN4C3=O)C(C)O)CSC2C)NC(=O)C(CC(C)C)NC1=O` (centres unmarked) [Factor A1], the minimum inhibitory concentration (MIC) is below 0.03 µg/mL in the assay with Propionibacterium acnes; 1 µg/mL (≈ 0.445 µM) with Ent. gallinarum; 0.25 µg/mL (≈ 0.111 µM) against Neisseria meningitidis; 1 µg/mL (≈ 0.445 µM) against Ent. faecalis; “≦0.03 μg/ml” with Ent. faecalis (4323 Ent. faecalis VanA); 0.5 µg/mL (≈ 0.222 µM) in the assay with Ent. faecalis (setting [1]). Moreover, the minimal inhibitory concentration (MIC) was 2 µg/mL (≈ 0.889 µM) in the assay on Ent. faecalis (setting [2]); 1 µg/mL (≈ 0.445 µM) in the assay with Ent. faecalis (4397 Ent. faecalis VanB); 1 µg/mL (≈ 0.445 µM) with Ent. faecalis (J1 Ent. faecalis VanA); “≦0.0015 μg/ml” in the assay with Strept. pneumoniae (3915 Strept. pneumoniae Pen-S); “≦0.0015 μg/ml” in the assay with Strept. pneumoniae (3919 Strept. pneumoniae Pen-R); “≦0.03 μg/ml” against Staph. epidermidis (3894 Staph. epidermidis Met-R). For the same molecule, the MIC result in the assay with Staph. aureus (819 Staph. aureus Met-S) is “≦0.03 μg/ml”; in the assay with Staph. aureus (setting [3]) it was 0.13 µg/mL (≈ 0.0578 µM); against Staph. aureus (1524 Staph. aureus Met-R), “≦0.03 μg/ml”; with Staph. aureus (2235 Staph. aureus Met-R) it was 0.06 µg/mL (≈ 0.0267 µM); with Ent. faecium (3 Ent. faecium Van A) it was 0.5 µg/mL (≈ 0.222 µM); in the assay with Ent. faecium (4 Ent. faecium Van A), 1 µg/mL (≈ 0.445 µM). The MIC in the assay on Ent. faecium (setting [4]) came to 1 µg/mL (≈ 0.445 µM); in the assay with Ent. faecium (4339 Ent. faecium VanD), 0.25 µg/mL (≈ 0.111 µM); with Ent. faecium (6349 Ent. faecium Van A LNZ-R), 2 µg/mL (≈ 0.889 µM); with Ent. faecium (A8 Ent. faecium Van A), 0.5 µg/mL (≈ 0.222 µM); in the assay with Ent. faecium (D561 Ent. faecium Van A) it was 2 µg/mL (≈ 0.889 µM); against Neisseria gonorrhaee it was 0.5 µg/mL (≈ 0.222 µM).
As for `C=C1NC(=O)C(Cc2c[nH]c3ccc(Cl)cc23)NC(=O)C(NC(=O)C(=CC)NC(=O)C(N)C(C)C)CSCC(C(=O)NC2C(=O)N3CCCC3C(=O)NCC(=O)NC(C(=O)NC(C(=O)NC3CSCC4NC(=O)C(CC(N)=O)NC(=O)C(CSCC5NC(=O)C(Cc6ccccc6)NC(=O)C(CS/C=C\NC5=O)NC4=O)NC(=O)CNC(=O)CNC(=O)CNC(=O)C4CC(O)CN4C3=O)C(C)O)CSC2C)NC(=O)C(CC(C)C)NC1=O` (centres unmarked) [Factor A2], the MIC with Propionibacterium acnes was 0.06 µg/mL (≈ 0.0269 µM); with Ent. gallinarum, 1 µg/mL (≈ 0.448 µM); with Neisseria meningitidis, 0.25 µg/mL (≈ 0.112 µM); with Ent. faecalis, 2 µg/mL (≈ 0.896 µM); with Ent. faecalis (4323 Ent. faecalis VanA) it was “≦0.03 μg/ml”; in the assay with Ent. faecalis (setting [1]) it was 0.5 µg/mL (≈ 0.224 µM). For the same molecule, the minimum inhibitory concentration (MIC) in the assay with Ent. faecalis (setting [2]) was 2 µg/mL (≈ 0.896 µM); against Ent. faecalis (4397 Ent. faecalis VanB) it was 1 µg/mL (≈ 0.448 µM); in the assay on Ent. faecalis (J1 Ent. faecalis VanA), 1 µg/mL (≈ 0.448 µM); against Strept. pneumoniae (3915 Strept. pneumoniae Pen-S), “≦0.0015 μg/ml”; with Strept. pneumoniae (3919 Strept. pneumoniae Pen-R) it was “≦0.0015 μg/ml”; with Staph. epidermidis (3881 Staph. epidermidis Met-R), “≦0.03 μg/ml”. The minimum inhibitory concentration (MIC) result against Staph. aureus (819 Staph. aureus Met-S) is “≦0.03 μg/ml”; in the assay with Staph. aureus (setting [3]) it was 0.13 µg/mL (≈ 0.0582 µM); with Staph. aureus (1524 Staph. aureus Met-R) it was “≦0.03 μg/ml”; in the assay on Staph. aureus (2235 Staph. aureus Met-R), 0.06 µg/mL (≈ 0.0269 µM); in the assay on Ent. faecium (3 Ent. faecium Van A) it was 0.5 µg/mL (≈ 0.224 µM); with Ent. faecium (4 Ent. faecium Van A), 1 µg/mL (≈ 0.448 µM). Moreover, the MIC worked out at 2 µg/mL (≈ 0.896 µM) against Ent. faecium (568 Enterococcus faecium cl. isol.); 2 µg/mL (≈ 0.896 µM) with Ent. faecium (setting [4]); 0.25 µg/mL (≈ 0.112 µM) against Ent. faecium (4339 Ent. faecium VanD); 2 µg/mL (≈ 0.896 µM) in the assay on Ent. faecium (6349 Ent. faecium Van A LNZ-R); 0.5 µg/mL (≈ 0.224 µM) in the assay with Ent. faecium (A8 Ent. faecium Van A); 2 µg/mL (≈ 0.896 µM) in the assay on Ent. faecium (D561 Ent. faecium Van A). The molecule further returned an MIC in the assay with Neisseria gonorrhaee of 0.25 µg/mL (≈ 0.112 µM).
On to `C=C1NC(=O)[C@H](Cc2c[nH]c3ccc(Cl)cc23)NC(=O)[C@H](NC(=O)/C(=C/C)NC(=O)[C@@H](N)C(C)C)CSC[C@@H](C(=O)N[C@H]2C(=O)N3CCC[C@H]3C(=O)NCC(=O)N[C@H](C(=O)N[C@H](C(=O)N[C@@H]3CSC[C@@H]4NC(=O)[C@H](CC(N)=O)NC(=O)[C@@H](CSC[C@@H]5NC(=O)[C@H](Cc6ccccc6)NC(=O)[C@@H](CS/C=C\NC5=O)NC4=O)NC(=O)CNC(=O)CNC(=O)CNC(=O)[C@@H]4CCCN4C3=O)[C@@H](C)O)CS[C@H]2C)NC(=O)[C@H](CC(C)C)NC1=O` [MF-BA-1768α1, reference compound], for which the MIC in the assay with Ent. faecalis was 4 µg/mL (≈ 1.8 µM).
